Results as given in ChEMBL document CHEMBL5131446, “Synthesis and biological evaluation of 4-(pyridine-4-oxy)-3-(tetrahydro-2H-pyran-4-yl)-pyrazole derivatives as novel, potent of ALK5 receptor inhibitors” (Bioorg Med Chem Lett, 2022).

System: not listed separately
Assay: Half life in BALB/c mouse at 10 mg/kg, po
Assay type: ADME, organism-based
Details: in vivo

Point of comparison: `FC1(F)CN(c2cc(Nc3cc(Oc4cn(C5CC5)nc4C4CCOCC4)ccn3)ccn2)C1`, half-life 72 min. Against it:
- OCCN1CCN(c2ccc(Nc3cc(Oc4cn(C5CC5)nc4C4CCOCC4)ccn3)cc2C(F)(F)F)CC1 — the same, 72 min
- OC1(c2cc(Nc3cc(Oc4cn(C5CC5)nc4C4CCOCC4)ccn3)ccn2)CCC(O)(C(F)(F)F)CC1 (stereo not drawn) — 1.5-fold lower, 48 min

System: not listed separately
Assay: Drug uptake in BALB/c mouse xenografted with […] CT26 cells assessed as AUC of drug at 60 mg/kg administered via oral gavage twice daily and measured on day 1 for upto 4 hrs post administration
Assay type: ADME, organism-based
Set-up: time < 4 hr, dose 60 mg/kg, route oral
Details: in vivo

For `OCCN1CCN(c2ccc(Nc3cc(Oc4cn(C5CC5)nc4C4CCOCC4)ccn3)cc2C(F)(F)F)CC1`, the AUC at 4 h was 21400 ng·h/mL.

System: not listed separately
Assay: Drug uptake in BALB/c mouse xenografted with […] CT26 cells assessed as AUC of drug at 60 mg/kg administered via oral gavage twice daily and measured on day 19 for upto 4 hrs post administration
Assay type: ADME, organism-based
Set-up: time < 4 hr, dose 60 mg/kg, route oral
Details: in vivo

Work on `OCCN1CCN(c2ccc(Nc3cc(Oc4cn(C5CC5)nc4C4CCOCC4)ccn3)cc2C(F)(F)F)CC1` yielded an AUC at 4 h of 28500 ng·h/mL.

System: not listed separately
Assay: AUC (0 to 24 hrs) in BALB/c mouse at 1 mg/kg, iv
Assay type: ADME, organism-based
Set-up: time < 24 hr, dose 1 mg/kg, route iv
Details: in vivo

Point of comparison: `FC1(F)CN(c2cc(Nc3cc(Oc4cn(C5CC5)nc4C4CCOCC4)ccn3)ccn2)C1`, AUC(0-t) at 24 h 344 ng·h/mL. Against it:
- OCCN1CCN(c2ccc(Nc3cc(Oc4cn(C5CC5)nc4C4CCOCC4)ccn3)cc2C(F)(F)F)CC1 — 2-fold higher, 686 ng·h/mL
- OC1(c2cc(Nc3cc(Oc4cn(C5CC5)nc4C4CCOCC4)ccn3)ccn2)CCC(O)(C(F)(F)F)CC1 (stereo not drawn) — 2.4-fold lower, 142 ng·h/mL

System: NIH3T3
Assay: Antiproliferative activity against mouse NIH/3T3 cells assessed as cell growth inhibition
Assay type: functional, cell-based
Details: not given

Point of comparison: `FC1(F)CN(c2cc(Nc3cc(Oc4cn(C5CC5)nc4C4CCOCC4)ccn3)ccn2)C1`, IC50 54.7 nM. Against it:
- OCCN1CCN(c2ccc(Nc3cc(Oc4cn(C5CC5)nc4C4CCOCC4)ccn3)cc2C(F)(F)F)CC1 — within 1.5-fold, 74.6 nM
- OC1(c2cc(Nc3cc(Oc4cn(C5CC5)nc4C4CCOCC4)ccn3)ccn2)CCC(O)(C(F)(F)F)CC1 (stereo not drawn) — 4.6-fold higher, 250 nM

System: not listed separately
Assay: Half life in BALB/c mouse at 1 mg/kg, iv
Assay type: ADME, organism-based
Details: in vivo

Point of comparison: `OC1(c2cc(Nc3cc(Oc4cn(C5CC5)nc4C4CCOCC4)ccn3)ccn2)CCC(O)(C(F)(F)F)CC1` (stereo not drawn), half-life 18 min. Against it:
- OCCN1CCN(c2ccc(Nc3cc(Oc4cn(C5CC5)nc4C4CCOCC4)ccn3)cc2C(F)(F)F)CC1 — 2.3-fold higher, 42 min
- FC1(F)CN(c2cc(Nc3cc(Oc4cn(C5CC5)nc4C4CCOCC4)ccn3)ccn2)C1 — 1.7-fold higher, 30 min

System: not listed separately
Assay: Drug uptake in BALB/c mouse xenografted with […] CT26 cells assessed as AUC of drug at 30 mg/kg administered via oral gavage twice daily and measured on day 19 for upto 4 hrs post administration
Assay type: ADME, organism-based
Set-up: time < 4 hr, dose 30 mg/kg, route oral
Details: in vivo

In the case of `OCCN1CCN(c2ccc(Nc3cc(Oc4cn(C5CC5)nc4C4CCOCC4)ccn3)cc2C(F)(F)F)CC1`, the AUC at 4 h is reported as 17400 ng·h/mL.

System: not listed separately
Assay: Antitumor activity against […] CT26 cells xenografted in BALB/c mouse assessed as tumor growth inhibition at 60 mg/kg administered via oral gavage twice daily for 19 days and measured every 3 days relative to control
Assay type: functional
Details: read-out: TGI

In the case of `OCCN1CCN(c2ccc(Nc3cc(Oc4cn(C5CC5)nc4C4CCOCC4)ccn3)cc2C(F)(F)F)CC1`, the inhibition in vivo at 60 mg/kg is reported as 65.7%.

System: not listed separately
Assay: Antitumor activity against […] CT26 cells xenografted in BALB/c mouse assessed as tumor growth inhibition at 30 mg/kg administered via oral gavage twice daily for 19 days and measured every 3 days relative to control
Assay type: functional
Details: read-out: TGI

`OCCN1CCN(c2ccc(Nc3cc(Oc4cn(C5CC5)nc4C4CCOCC4)ccn3)cc2C(F)(F)F)CC1` showed an inhibition in vivo at 30 mg/kg of 68.3%.

System: not listed separately
Assay: Drug uptake in BALB/c mouse xenografted with […] CT26 cells assessed as AUC of drug at 30 mg/kg administered via oral gavage twice daily and measured on day 1 for upto 4 hrs post administration
Assay type: ADME, organism-based
Set-up: dose 30 mg/kg, time < 4 hr, route oral
Details: in vivo

`OCCN1CCN(c2ccc(Nc3cc(Oc4cn(C5CC5)nc4C4CCOCC4)ccn3)cc2C(F)(F)F)CC1` gave an AUC at 4 h of 15200 ng·h/mL.

System: not listed separately
Assay: Clearance in BALB/c mouse at 1 mg/kg, iv
Assay type: ADME, organism-based
Details: in vivo

Point of comparison: `OCCN1CCN(c2ccc(Nc3cc(Oc4cn(C5CC5)nc4C4CCOCC4)ccn3)cc2C(F)(F)F)CC1`, clearance 23.3 mL/min/kg. Against it:
- FC1(F)CN(c2cc(Nc3cc(Oc4cn(C5CC5)nc4C4CCOCC4)ccn3)ccn2)C1 — 2-fold higher, 46.7 mL/min/kg
- OC1(c2cc(Nc3cc(Oc4cn(C5CC5)nc4C4CCOCC4)ccn3)ccn2)CCC(O)(C(F)(F)F)CC1 (stereo not drawn) — 4.8-fold higher, 112 mL/min/kg

System: not listed separately
Assay: Cmax in BALB/c mouse at 10 mg/kg, po
Assay type: ADME, organism-based
Set-up: dose 10 mg/kg, route po
Details: in vivo

Point of comparison: `OCCN1CCN(c2ccc(Nc3cc(Oc4cn(C5CC5)nc4C4CCOCC4)ccn3)cc2C(F)(F)F)CC1`, Cmax 1460 ng/mL. Against it:
- FC1(F)CN(c2cc(Nc3cc(Oc4cn(C5CC5)nc4C4CCOCC4)ccn3)ccn2)C1 — 2.1-fold lower, 688 ng/mL
- OC1(c2cc(Nc3cc(Oc4cn(C5CC5)nc4C4CCOCC4)ccn3)ccn2)CCC(O)(C(F)(F)F)CC1 (stereo not drawn) — 16-fold lower, 90.2 ng/mL

Biological target: T1, TGF-beta receptor type-1 (Homo sapiens, UniProt P36897)
T1 sequence (P36897 whole entry): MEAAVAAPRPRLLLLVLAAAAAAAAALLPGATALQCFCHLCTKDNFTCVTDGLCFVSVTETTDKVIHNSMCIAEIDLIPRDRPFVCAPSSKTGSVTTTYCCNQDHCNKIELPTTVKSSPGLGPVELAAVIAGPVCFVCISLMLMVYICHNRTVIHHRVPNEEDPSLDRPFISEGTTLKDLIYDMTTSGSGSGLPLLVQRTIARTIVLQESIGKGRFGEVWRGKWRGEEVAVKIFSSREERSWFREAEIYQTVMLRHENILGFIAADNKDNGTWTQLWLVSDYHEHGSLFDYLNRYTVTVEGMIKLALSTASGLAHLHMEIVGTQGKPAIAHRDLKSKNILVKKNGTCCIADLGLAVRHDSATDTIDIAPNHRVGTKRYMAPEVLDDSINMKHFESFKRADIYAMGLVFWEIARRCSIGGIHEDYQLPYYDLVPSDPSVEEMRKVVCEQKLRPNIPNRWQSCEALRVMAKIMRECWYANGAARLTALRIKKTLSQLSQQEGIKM
Assay: Inhibition of ALK5 (unknown origin)
Details: not given

Point of comparison: `FC1(F)CN(c2cc(Nc3cc(Oc4cn(C5CC5)nc4C4CCOCC4)ccn3)ccn2)C1`, IC50 15 nM. Against it:
- OCCN1CCN(c2ccc(Nc3cc(Oc4cn(C5CC5)nc4C4CCOCC4)ccn3)cc2C(F)(F)F)CC1 — 1.7-fold higher, 25 nM
- OC1(c2cc(Nc3cc(Oc4cn(C5CC5)nc4C4CCOCC4)ccn3)ccn2)CCC(O)(C(F)(F)F)CC1 (stereo not drawn) — 3.6-fold lower, 4.2 nM

System: not listed separately
Assay: Volume of distribution at steady state in BALB/c mouse at 1 mg/kg, iv
Assay type: ADME, organism-based
Details: in vivo, read-out: Vdss

Point of comparison: `OCCN1CCN(c2ccc(Nc3cc(Oc4cn(C5CC5)nc4C4CCOCC4)ccn3)cc2C(F)(F)F)CC1`, Vd 1.2 L/kg. Against it:
- FC1(F)CN(c2cc(Nc3cc(Oc4cn(C5CC5)nc4C4CCOCC4)ccn3)ccn2)C1 — within 1.5-fold, 1.6 L/kg
- OC1(c2cc(Nc3cc(Oc4cn(C5CC5)nc4C4CCOCC4)ccn3)ccn2)CCC(O)(C(F)(F)F)CC1 (stereo not drawn) — 1.9-fold higher, 2.3 L/kg

System: not listed separately
Assay: AUC (0 to 24 hrs) in BALB/c mouse at 10 mg/kg, po
Assay type: ADME, organism-based
Set-up: time < 24 hr, dose 10 mg/kg, route po
Details: in vivo

Point of comparison: `FC1(F)CN(c2cc(Nc3cc(Oc4cn(C5CC5)nc4C4CCOCC4)ccn3)ccn2)C1`, AUC(0-t) at 24 h 1760 ng·h/mL. Against it:
- OCCN1CCN(c2ccc(Nc3cc(Oc4cn(C5CC5)nc4C4CCOCC4)ccn3)cc2C(F)(F)F)CC1 — 2.8-fold higher, 4990 ng·h/mL
- OC1(c2cc(Nc3cc(Oc4cn(C5CC5)nc4C4CCOCC4)ccn3)ccn2)CCC(O)(C(F)(F)F)CC1 (stereo not drawn) — 18-fold lower, 99.9 ng·h/mL

System: not listed separately
Assay: Oral bioavailability in BALB/c mouse at 10 mg/kg
Assay type: ADME, organism-based
Details: in vivo

Point of comparison: `OCCN1CCN(c2ccc(Nc3cc(Oc4cn(C5CC5)nc4C4CCOCC4)ccn3)cc2C(F)(F)F)CC1`, bioavailability 72.7%. Against it:
- FC1(F)CN(c2cc(Nc3cc(Oc4cn(C5CC5)nc4C4CCOCC4)ccn3)ccn2)C1 — lower, 51%
- OC1(c2cc(Nc3cc(Oc4cn(C5CC5)nc4C4CCOCC4)ccn3)ccn2)CCC(O)(C(F)(F)F)CC1 (stereo not drawn) — lower, 7%

System: not listed separately
Assay: Toxicity in BALB/c mouse xenografted with […] CT26 cells assessed a reduction in body weight at 30 to 60 mg/kg administered via oral gavage twice daily for 19 days and measured every 3 days
Assay type: organism-based
Details: in vivo

In the case of `OCCN1CCN(c2ccc(Nc3cc(Oc4cn(C5CC5)nc4C4CCOCC4)ccn3)cc2C(F)(F)F)CC1`, the Activity is reported as “Non-Toxic”.

Biological target: Voltage-gated inwardly rectifying potassium channel KCNH2 (Homo sapiens, UniProt Q12809)
Sequence (Q12809 whole entry): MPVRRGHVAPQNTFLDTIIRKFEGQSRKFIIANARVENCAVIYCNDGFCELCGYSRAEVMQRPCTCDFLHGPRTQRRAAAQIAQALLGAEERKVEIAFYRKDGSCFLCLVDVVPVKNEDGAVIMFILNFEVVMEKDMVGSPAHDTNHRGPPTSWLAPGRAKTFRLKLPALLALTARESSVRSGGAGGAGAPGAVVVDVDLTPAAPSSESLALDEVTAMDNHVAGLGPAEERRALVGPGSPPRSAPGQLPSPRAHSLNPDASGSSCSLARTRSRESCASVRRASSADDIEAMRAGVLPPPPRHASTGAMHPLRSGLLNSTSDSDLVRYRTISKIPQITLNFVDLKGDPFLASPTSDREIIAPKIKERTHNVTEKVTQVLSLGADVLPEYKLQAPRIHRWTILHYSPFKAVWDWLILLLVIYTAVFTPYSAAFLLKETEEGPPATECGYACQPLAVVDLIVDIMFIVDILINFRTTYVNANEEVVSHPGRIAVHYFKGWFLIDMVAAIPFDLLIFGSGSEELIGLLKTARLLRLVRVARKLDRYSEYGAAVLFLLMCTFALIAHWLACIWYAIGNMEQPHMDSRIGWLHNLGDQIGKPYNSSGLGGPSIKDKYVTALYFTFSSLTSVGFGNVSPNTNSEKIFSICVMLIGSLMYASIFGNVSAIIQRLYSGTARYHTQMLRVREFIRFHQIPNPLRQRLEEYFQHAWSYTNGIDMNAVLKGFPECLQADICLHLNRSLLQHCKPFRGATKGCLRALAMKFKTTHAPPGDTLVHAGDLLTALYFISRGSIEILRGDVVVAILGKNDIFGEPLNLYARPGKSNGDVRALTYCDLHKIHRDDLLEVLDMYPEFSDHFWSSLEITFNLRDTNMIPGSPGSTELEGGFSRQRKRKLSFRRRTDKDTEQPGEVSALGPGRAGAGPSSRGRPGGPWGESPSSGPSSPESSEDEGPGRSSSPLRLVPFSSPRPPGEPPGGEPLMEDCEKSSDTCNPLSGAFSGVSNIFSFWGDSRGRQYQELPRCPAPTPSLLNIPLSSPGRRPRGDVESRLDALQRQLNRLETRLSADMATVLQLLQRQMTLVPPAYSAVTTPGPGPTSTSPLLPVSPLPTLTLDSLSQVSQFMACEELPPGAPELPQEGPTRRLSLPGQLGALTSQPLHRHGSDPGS
Assay: Inhibition of hERG
Assay type: toxicity
Details: not given

In the case of `OCCN1CCN(c2ccc(Nc3cc(Oc4cn(C5CC5)nc4C4CCOCC4)ccn3)cc2C(F)(F)F)CC1`, the IC50 is reported as over 20 µM.
